Results from PMC2574866 (Drug metabolism and disposition: the biological fate of …, 2008).
Read-outs that look alike come from different tables or passages of the source.

Experiments:
[1] = tested on: sandwich-cultured rat hepatocytes; settings: for biliary excretion index (BEI), effect of BSA-FAF / unbound intrinsic biliary clearance (intrinsic Cl'biliary), effect of BSA-FAF: 4% (w/v) BSA-FAF vs no BSA or BSA
[2] = literature value, cited from earlier work
[3] = molecular target: bovine serum albumin (BSA) / essentially fatty acid-free BSA (BSA-FAF) (Bos taurus, UniProt P02769)
Sequence of bovine serum albumin (BSA) / essentially fatty acid-free BSA (BSA-FAF) (P02769 25-607): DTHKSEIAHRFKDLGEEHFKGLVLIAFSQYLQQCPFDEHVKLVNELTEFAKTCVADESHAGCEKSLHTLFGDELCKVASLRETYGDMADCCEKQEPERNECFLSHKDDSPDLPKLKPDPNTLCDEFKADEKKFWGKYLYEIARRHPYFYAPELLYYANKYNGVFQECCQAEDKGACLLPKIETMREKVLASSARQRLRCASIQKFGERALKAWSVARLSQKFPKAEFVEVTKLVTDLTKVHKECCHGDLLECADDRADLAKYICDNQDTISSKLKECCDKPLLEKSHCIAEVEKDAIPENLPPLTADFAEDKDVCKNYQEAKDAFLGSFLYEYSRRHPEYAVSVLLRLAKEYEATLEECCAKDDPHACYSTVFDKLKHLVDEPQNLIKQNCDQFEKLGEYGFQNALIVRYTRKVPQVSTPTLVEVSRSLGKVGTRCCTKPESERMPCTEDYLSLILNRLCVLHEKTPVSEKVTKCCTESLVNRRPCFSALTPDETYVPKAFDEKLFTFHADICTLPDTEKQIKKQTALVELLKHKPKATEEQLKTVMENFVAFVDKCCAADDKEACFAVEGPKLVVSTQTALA

[4] = 4% (w/v) BSA vs no BSA, 10 min incubation
[5] = six long chain fatty acids added to BSA-FAF, n = 1 liver
[6] = addition of 1 mM Ca2+ (calcium chloride) to BSA-FAF, n = 1 liver

Compound | unbound intrinsic biliary clearance (intrinsic Cl'biliary), effect of BSA [1, 4] | accumulation in sandwich-cultured rat hepatocytes ([1]; in the presence of BSA or BSA-FAF vs no BSA) | unbound fraction (fu) ([2]; ref Forker and Luxon, 1981, Hung et al., 2005) | fu dependence on compound concentration [3] | fu in the presence of BSA compared to BSA-FAF [3] | binding to albumin ([3]; bovine) | biliary excretion index (BEI), effect of BSA-FAF ([1]; 10 min incubation) | unbound intrinsic biliary clearance (intrinsic Cl'biliary), effect of BSA-FAF ([1]; 10 min incubation) | BEI in the presence of BSA-FAF, effect of addition of long chain fatty acids [1, 5] | intrinsic Cl'biliary in the presence of BSA-FAF, effect of addition of long chain fatty acids [1, 5] | unbound fraction (fu) ([2]; ref Hatanaka, 2000) | fu in the presence of BSA-FAF, effect of addition of long chain fatty acids [3] | biliary excretion index (BEI), effect of BSA [1, 4] | BEI in the presence of BSA-FAF, effect of additional Ca2+ [1, 6] | intrinsic Cl'biliary in the presence of BSA-FAF, effect of additional Ca2+ [1, 6] | unbound fraction (fu) ([2]; ref Lacy et al., 2002)
C[C@H](CCC(=O)NCCS(=O)(=O)O)[C@H]1CC[C@H]2[C@@H]3[C@H](O)C[C@@H]4C[C@H](O)CC[C@]4(C)[C@H]3C[C@H](O)[C@]12C [taurocholate] | unaffected | notably decreased | ~ 0.15 | concentration-independent | significantly higher | approximately 85% | – | – | – | – | – | – | – | – | – | –
CC[C@H](C)C(=O)O[C@H]1C[C@H](O)C=C2C=C[C@H](C)[C@H](CC[C@@H](O)C[C@@H](O)CC(=O)O)[C@H]21 [pravastatin] | not significantly different | – | – | concentration-independent | significantly higher | – | significantly decreased | significantly decreased | unable to mitigate this effect | unable to mitigate this effect | ~ 0.5 | unable to mitigate this effect | – | – | – | –
C[C@H]1O[C@@H](O[C@H]2[C@@H](O)C[C@H](O[C@H]3[C@@H](O)C[C@H](O[C@H]4CC[C@@]5(C)[C@H](CC[C@@H]6[C@@H]5C[C@@H](O)[C@]5(C)[C@@H](C7=CC(=O)OC7)CC[C@]65O)C4)O[C@@H]3C)O[C@@H]2C)C[C@H](O)[C@@H]1O [digoxin] | not altered | – | – | concentration-independent | significantly higher | – | significantly decreased | significantly decreased | – | – | – | – | not altered | unable to restore | unable to restore | ~ 0.7
